According to patent US20250339399A1, “SUPRAMOLECULAR SELF-ASSEMBLY SYSTEM” (Beijing Creatron Institute of Pharmaceutical Research Co., …, priority 2022, published 2025):

Experiments:
[1] = cited from earlier work
[2] = Guest molecule concentration after incubation in initial medium without polymer (Comparative Example 1); format: physicochemical; settings: 37° C.
Method: pH 2.0 hydrochloric acid, pH 4.5 acetate, and pH 6.5, pH 6.8, or pH 7.4 phosphate buffer solutions were prepared. The selection of each initial medium followed the principle that the solubility in the initial medium of the selected targets (or active ingredients) should low enough, but should meet the detection sensitivity and accuracy requirements of the corresponding analytical methods. Each buffer as initial media was placed in a 50 ml test tube with a stopper, shaken in a constant temperature air shaker at 37° C.±0.5° C., with an amplitude of 200 rpm, and incubated for 1 hour. […] Samples were taken at 0.5 h, 3 h and 6 h after incubation, centrifuged at 37° C., 13000 rpm for 5 minutes, and the supernatant was diluted at least 10 times with the mobile phase under the target analyte analytical method, filtered, the initial filtrate was discarded, and the continued filtrate was used as the test solution for injection analysis. The corresponding HPLC method under each target object item in Table 8 was used to determine the content of each target substance. When the solubility of the target in the initial medium is below the quantitative limit of the analytical method, a small amount of surfactant, such as sodium dodecyl sulfate (SDS), Tween20, or Tween80, can be added appropriately.
The above targets were incubated at 37° C.±0.5° C. for different time in an initial medium without any polymer. Each solid target formed by molecular stacking was removed by centrifugation, and the supernatant was analyzed using the HPLC method under each target item (see Table 8). The theoretical addition concentration of each target when its supramolecular self-assembly system was built was determined by its maximum dose in clinical use.

[3] = Binary supramolecular self-assembly systems of polymer and target: guest concentration over incubation time (Comparative Example 2); format: physicochemical
Method: Experiments were conducted according to the steps in Comparative Example 1, and quantitative analysis was carried out using the analytical method for each target to investigate the regulation ability […] stacking.

[4] = binary system with 0.5% polymer 101, incubation 0.5 h
[5] = binary system with 0.5% polymer 101, incubation 3 h
[6] = binary system with 0.5% polymer 101, incubation 6 h
[7] = binary system with 0.5% polymer 102, incubation 0.5 h
[8] = binary system with 0.5% polymer 102, incubation 3 h
[9] = binary system with 0.5% polymer 102, incubation 6 h
[10] = binary system with 0.5% polymer 103, incubation 0.5 h
[11] = binary system with 0.5% polymer 103, incubation 3 h
[12] = binary system with 0.5% polymer 103, incubation 6 h
[13] = binary system with 0.5% polymer 106, incubation 0.5 h
[14] = binary system with 0.5% polymer 106, incubation 3 h
[15] = binary system with 0.5% polymer 106, incubation 6 h
[16] = binary system with 0.5% polymer 107, incubation 0.5 h
[17] = binary system with 0.5% polymer 107, incubation 3 h
[18] = binary system with 0.5% polymer 107, incubation 6 h
[19] = binary system with 0.5% polymer 110, incubation 0.5 h
[20] = binary system with 0.5% polymer 110, incubation 3 h
[21] = binary system with 0.5% polymer 110, incubation 6 h

SMILES | LogD7.4 or Log P [1] | Concentration of the target in the solution measured after different incubation time [3, 4] | Concentration of the target in the solution measured after different incubation time [3, 5] | Concentration of the target in the solution measured after different incubation time [3, 6] | Concentration of the target in the solution measured after different incubation time [3, 7] | Concentration of the target in the solution measured after different incubation time [3, 8] | Concentration of the target in the solution measured after different incubation time [3, 9] | Concentration of the target in the solution measured after different incubation time [3, 10] | Concentration of the target in the solution measured after different incubation time [3, 11] | Concentration of the target in the solution measured after different incubation time [3, 12] | Concentration of the target in the solution measured after different incubation time [3, 13] | Concentration of the target in the solution measured after different incubation time [3, 14] | Concentration of the target in the solution measured after different incubation time [3, 15] | Concentration of the target in the solution measured after different incubation time [3, 16] | Concentration of the target in the solution measured after different incubation time [3, 17] | Concentration of the target in the solution measured after different incubation time [3, 18] | Concentration of the target in the solution measured after different incubation time [3, 19] | Concentration of the target in the solution measured after different incubation time [3, 20] | Concentration of the target in the solution measured after different incubation time [3, 21] | further results
CC#CC(=O)N1CCC[C@H]1c1nc(-c2ccc(C(=O)Nc3ccccn3)cc2)c2c(N)nccn12 [Acalabrutinib, acalabrutinib] | 2.56 | 209100 ng/mL | 193900 ng/mL | 197800 ng/mL | 566600 ng/mL | 580900 ng/mL | 608200 ng/mL | 292100 ng/mL | 321400 ng/mL | 246400 ng/mL | 184100 ng/mL | 124300 ng/mL | 159400 ng/mL | 497800 ng/mL | 171600 ng/mL | 167100 ng/mL | 427600 ng/mL | 429700 ng/mL | 460800 ng/mL | Concentration of guest molecule measured after different incubated time ([2]; 0.5 h, pH 7.4 phosphate buffer): 106000 ng/mL; Concentration of guest molecule measured after different incubated time ([2]; 3 h, pH 7.4 phosphate buffer): 87600 ng/mL; Concentration of guest molecule measured after different incubated time ([2]; 6 h, pH 7.4 phosphate buffer): 87600 ng/mL
CCc1cc2c(cc1N1CCC(N3CCOCC3)CC1)C(C)(C)c1[nH]c3cc(C#N)ccc3c1C2=O [Alectinib, alectinib] | 4.75 | 45800 ng/mL | 31000 ng/mL | 9400 ng/mL | 51500 ng/mL | 47500 ng/mL | 45900 ng/mL | 1000 ng/mL | 900 ng/mL | 1300 ng/mL | 1400 ng/mL | 2100 ng/mL | 1900 ng/mL | 1500 ng/mL | 800 ng/mL | 2900 ng/mL | 1900 ng/mL | 1600 ng/mL | 1300 ng/mL | Concentration of guest molecule measured after different incubated time ([2]; 0.5 h, pH 6.8 phosphate buffer): 2500 ng/mL; Concentration of guest molecule measured after different incubated time ([2]; 3 h, pH 6.8 phosphate buffer): 10200 ng/mL; Concentration of guest molecule measured after different incubated time ([2]; 6 h, pH 6.8 phosphate buffer): 2200 ng/mL
CCOc1nc2cccc(C(=O)OC(C)OC(=O)OC3CCCCC3)c2n1Cc1ccc(-c2ccccc2-c2nnn[nH]2)cc1 (centres unmarked) [Candesartan Cilexetil, candesartan cilexetil] | 5.31 | 135300 ng/mL | 34500 ng/mL | 18400 ng/mL | 47000 ng/mL | 43800 ng/mL | 4900 ng/mL | 91600 ng/mL | 110500 ng/mL | 120700 ng/mL | 103100 ng/mL | 16200 ng/mL | 18800 ng/mL | 189100 ng/mL | 33700 ng/mL | 28800 ng/mL | 4700 ng/mL | 18300 ng/mL | 3300 ng/mL | Concentration of guest molecule measured after different incubated time ([2]; 0.5 h, pH 4.5 acetate buffer): 3800 ng/mL; Concentration of guest molecule measured after different incubated time ([2]; 3 h, pH 4.5 acetate buffer): 2100 ng/mL; Concentration of guest molecule measured after different incubated time ([2]; 6 h, pH 4.5 acetate buffer): 2000 ng/mL
COC(=O)[C@H](c1ccccc1Cl)N1CCc2sccc2C1 [Clopidogrel, clopidogrel] | 4.11 | 415100 ng/mL | 421500 ng/mL | 361700 ng/mL | 29100 ng/mL | 28500 ng/mL | 26100 ng/mL | 69100 ng/mL | 69600 ng/mL | 64500 ng/mL | 37000 ng/mL | 39300 ng/mL | 39500 ng/mL | 57000 ng/mL | 37800 ng/mL | 36500 ng/mL | 64700 ng/mL | 69300 ng/mL | 64400 ng/mL | 
O=C1[C@@H]2[C@H]3CC[C@H](C3)[C@@H]2C(=O)N1C[C@@H]1CCCC[C@H]1CN1CCN(c2nsc3ccccc23)CC1 [Lurasidone, lurasidone] | 3.43 | 13200 ng/mL | 13500 ng/mL | 9400 ng/mL | 15300 ng/mL | 12700 ng/mL | 13400 ng/mL | 7000 ng/mL | 5200 ng/mL | 4000 ng/mL | 4100 ng/mL | 3100 ng/mL | 1800 ng/mL | 3200 ng/mL | 2400 ng/mL | 1700 ng/mL |  |  |  | 
